Laboratory results taken from US20170319563A1, “STEROID-FREE DISEASE MANAGEMENT” (Asana BioSciences, LLC, priority 2014, published 2017).
pEC50, pIC50: −log10 of the molar value. Read-outs that look alike come from different tables or passages of the source.

Tests used:
CYP17 C17,20-lyase [1] = biological target: T1, CYP17 C17,20-lyase (Homo sapiens, UniProt P05093); experiment: CYP17 lyase assay in human testicular microsomes; format: biochemical
T1 construct: These cells have intact testosterone synthesis pathway; host or cells: NCI-H295R human adrenocortical carcinoma cells
T1 sequence (P05093 1-508): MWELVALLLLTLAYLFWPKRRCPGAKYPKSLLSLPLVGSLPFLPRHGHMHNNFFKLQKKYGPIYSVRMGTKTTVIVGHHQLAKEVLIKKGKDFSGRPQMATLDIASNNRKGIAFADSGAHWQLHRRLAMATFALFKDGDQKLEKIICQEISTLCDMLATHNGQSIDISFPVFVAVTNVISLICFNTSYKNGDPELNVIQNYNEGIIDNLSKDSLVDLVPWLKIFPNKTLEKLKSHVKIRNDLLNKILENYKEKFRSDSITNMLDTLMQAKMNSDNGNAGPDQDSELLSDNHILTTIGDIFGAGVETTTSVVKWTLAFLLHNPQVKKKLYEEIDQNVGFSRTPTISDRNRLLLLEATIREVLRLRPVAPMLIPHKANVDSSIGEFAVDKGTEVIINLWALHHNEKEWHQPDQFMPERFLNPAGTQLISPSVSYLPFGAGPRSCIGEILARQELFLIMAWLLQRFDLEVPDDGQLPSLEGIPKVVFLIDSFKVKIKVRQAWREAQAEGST
Text: ASN001 has one chiral center. The individual enantiomers of ASN001 are both potent and selective inhibitors of CYP17. […] Similar relative potency results for the racemate and enantiomers have also been obtained experimentally in rat testicular microsomes and human H295R adrenocortical carcinoma cells. In summary ASN001 and its individual enantiomers are all potent inhibitors of CYP17 activity and testosterone synthesis in biochemical and cellular functional assays.
(§1) General procedures for the in vitro and in vivo studies discussed above have been described previously in WO 2013/049559 (published in the US as United States Patent Application Publication No. US 2013/0085148; see e.g. Examples 84-88). The inhibitory effect of compounds on human CYP17 lyase activity in vitro in human testicular microsomes (CelsisIVT, US) was determined in a similar manner to the CYP17 lyase assay in rat testicular microsomes described previously as Example 84 in WO 2013/049559 (published in the US as United States Patent Application Publication No. US 2013/0085148), except that human testicular microsomes were used instead of rat testicular microsomes.

male SD rats [2] = experiment: Prostate and seminal vesicle weights after 14 days repeat oral administration; format: in vivo
Procedure: The effect of ASN001 and its individual enantiomers on prostate and seminal vesicle weights was evaluated after 14 days repeat oral administration in male SD rats. ASN001 caused a dose-dependent reduction of the prostate and seminal vesicle weights.
(In a prior test using ASN001 at 30 mg/kg once a day (QD) PO×14 days, not made in comparison to either enantiomer, but using the same general protocol, the reduction in prostate and seminal vesicle weights was “about 50%” and “about 60%” respectively. See Example 88 of WO 2013/049559.)
as §1

CYP17 C17,20-lyase [3] = biological target: T1, CYP17 C17,20-lyase; experiment: Cell-based CYP17 C17,20-lyase assay in H295R cells
Procedure: Cell-Based CYP17 C17,20-Lyase Assay
To test the inhibitory effect of compounds on CYP17 C17,20-lyase activity in cells, human adrenocortical carcinoma H295R cells (ATCC) were used. These cells have intact testosterone synthesis pathway and are ideal to study the effect of compounds on various enzymes involved in this pathway. The cell-based CYP17 C17,20-Lyase assay was conducted as described previously as Example 85 in WO 2013/049559 (published in the US as United States Patent Application Publication No. US 2013/0085148).

testosterone synthesis = experiment: Cell-based functional assay: testosterone synthesis inhibition in H295R cells; set-up: species or system human; settings: for pEC50: Homo sapiens, NCI-H295R, H295R cells; for pIC50 / testosterone/cortisol synthesis inhibition ratio: human adrenal NCI-H295R cells
Procedure: Cell-Based Functional Assay: Testosterone Synthesis Inhibition
To understand how the inhibition of CYP17 lyase impacts testosterone synthesis, testosterone levels were measured in H295R adrenocortical carcinoma cells. This assay was conducted as described previously as Example 86 in WO 2013/049559 (published in the US as United States Patent Application Publication No. US 2013/0085148).

cortisol synthesis = experiment: Cell-based functional assay: cortisol synthesis inhibition in H295R cells; set-up: species or system human
Procedure: Cell-Based Functional Assay: Cortisol Synthesis Inhibition
The H295R cell based assay was used to examine effects on cortisol synthesis. The DetectX® Cortisol Immunoassay kit (Arbor Assays, Cat. No. K003-H1) measures Cortisol present in extracted dried fecal samples, serum, plasma and tissue culture media samples.
(§2) Standard Preparation • 1. Label seven test tubes as #1 through #7. • 2. Pipet 450 μL of Assay Buffer into tube #1 and 250 μL into tubes #2 to #7. • 3. The Cortisol stock solution contains an organic solvent. Pre-rinse the pipet tip several times to ensure accurate delivery. • 4. Carefully add 50 μL of the Cortisol stock solution to tube #1 and vortex completely. • 5. Take 250 μL of the Cortisol solution in tube #1 and add it to tube #2 and vortex completely. • 6. Repeat the serial dilutions for tubes #3 through #7. • 7. The concentration of Cortisol in tubes 1 through 7 will be 5,000, 2,500, 1,250, 625, 312.5, 156.25 and 78.125 pg/mL.
(§3) Assay Protocol • 1. Subculture H295R (Human Adreno Cortical Carcinoma cell line ATCC# CRL-2128) cells and seed 60,000 cells per well in a poly-d lysine plate and leave it overnight at 37° C. • 2. Add 50 μl of serially diluted compounds from a 5×plate. • 3. Incubate overnight at 37° C. (˜16 hours). • 4. Collect media/cell culture supernatant and dilute appropriately for Cortisol estimation (1:10 diluted with assay buffer). • 5. Pipet 50 μL of samples or standards into wells in the plate. • 6. Pipet 75 μL of Assay Buffer into the non-specific binding (NSB) wells. • 7. Pipet 50 μL of Assay Buffer into wells to act as maximum binding wells (B0 or 0 pg/mL). • 8. Add 25 μL of the DetectX® Cortisol Conjugate to each well using a repeater pipet. • 9. Add 25 μL of the DetectX® Cortisol Antibody to each well, except the NSB wells, using a repeater pipet. • 10. Gently tap the sides of the plate to ensure adequate mixing of the reagents. Cover the plate with the plate sealer and shake at room temperature for 1 hour. If the plate is not shaken signals bound will be approximately 45% lower. • 11. Aspirate the plate and wash each well 4 times with 300 μL wash buffer. Tap the plate dry on clean absorbent towels. • 12. Add 100 μL of the TMB Substrate to each well, using a repeater pipet. • 13. Incubate the plate at room temperature for 30 minutes without shaking. • 14. Add 50 μL of the Stop Solution to each well, using a repeater or a multichannel pipet. • 15. Read the optical density generated from each well in a plate reader capable of reading at 450 nm. • 16. Use the plate reader's built-in 4PLC software capabilities to calculate Cortisol concentration for each sample.

corticosterone synthesis = experiment: Cell-based functional assay: corticosterone synthesis inhibition in H295R cells; set-up: species or system human
Procedure: Cell-Based Functional Assay: Corticosterone Synthesis Inhibition
The H295R cell based assay was used to examine effects on corticosterone synthesis. The DetectX® Corticosterone Immunoassay kit (Arbor Assays, Cat. No. K014-H1) measures Corticosterone present in extracted dried fecal samples, serum, plasma and tissue culture media samples.
as §2, with “corticosterone” for “Cortisol”
as §3, with “for Corticosterone” for “for Cortisol”, “(1:10 Diluted” for “(1:10 diluted”, “wells (Bo” for “wells (B0”, “DetectX® Corticosterone” for “DetectX® Cortisol”, “calculate Corticosterone” for “calculate Cortisol”

[4] = Food effect and bioavailability in rats; format: in vivo, rat
Text: Accordingly, the dosage forms, regimens and methods of administration described herein may be accomplished on humans in the fed or fasted state and with food or without. Thus, the methods described herein could include administration of a therapeutically effective amount of ASN001, as a substantially pure enantiomer, as a mixture or as a racemic mixture, which is “food indifferent” which means with or without food to a patient in a fed or fasted state. Examples include, without limitation, with food, to a patient who has consumed food in the last two hours, without food, and/or to a patient who has not eaten in the last two hours.

male SD rats [5] = settings: prior test, 30 mg/kg QD PO x 14 days; Example 88 of WO 2013/049559; cited from earlier work
[6] = H295R cells, average of multiple runs, read-out: CYP17 C17,20-lyase average IC50
[7] = human adrenal NCI-H295R cells, read-out: 17,20-Lyase IC50
[8] = Homo sapiens, NCI-H295R, H295R cells, read-out: cortisol synthesis inhibition IC50
[9] = human adrenal NCI-H295R cells, read-out: cortisol synthesis IC50
[10] = Homo sapiens, NCI-H295R, H295R cells, read-out: corticosterone synthesis inhibition IC50
[11] = human adrenal NCI-H295R cells, read-out: corticosterone synthesis IC50

SMILES | pIC50 (CYP17 C17,20-lyase [1]) | reduction in prostate weight (male SD rats [2]; 10 mg/kg BID PO x 14 days) [%] | reduction in seminal vesicle weight (male SD rats [2]; 10 mg/kg BID PO x 14 days) [%] | pIC50 (CYP17 C17,20-lyase [3]; [6]) | pIC50 (CYP17 C17,20-lyase [3]; [7]) | pEC50 (testosterone synthesis) | pIC50 (testosterone synthesis) | testosterone/cortisol synthesis inhibition ratio (testosterone synthesis) | pIC50 (cortisol synthesis; [8]) | pIC50 (cortisol synthesis; [9]) | pIC50 (corticosterone synthesis; [10]) | pIC50 (corticosterone synthesis; [11]) | further results
CC(O)(c1ccncc1)c1cnc(-c2ccc(F)cc2)s1 (racemic) [ASN001, 1-(2-(4-fluorophenyl)thiazol-5-yl)-1-(pyridin-4-yl)ethanol] | 7.82 | 24 | 48 | 7.30 | 7.30 | 7.27 | 7.27 | 6.5 | 6.46 | 6.46 | 5.55 | 5.55 | reduction in prostate weight (male SD rats [2]; 30 mg/kg QD PO x 14 days): 29%; reduction in seminal vesicle weight (male SD rats [2]; 30 mg/kg QD PO x 14 days): 43%; difference between C17,20-lyase inhibition and cortisol biosynthesis inhibition (CYP17 C17,20-lyase [3]; adrenal NCI-H295R cells): ~7 fold; bioavailability ([4]; rat and other non-clinical species): quite high; food effect ([4]; rats): does not exhibit a food effect; reduction in prostate weight (male SD rats [5]): about 50%; reduction in seminal vesicle weight (male SD rats [5]): about 60%
CC(O)(c1ccncc1)c1cnc(-c2ccc(F)cc2)s1 (single isomer, unassigned; (+)) [(+)ASN001] | 7.20 |  |  |  |  |  |  |  |  |  |  |  | 
CC(O)(c1ccncc1)c1cnc(-c2ccc(F)cc2)s1 (single isomer, unassigned; (-)) [(−)ASN001] | 8.10 | 30 | 31 |  |  |  |  |  |  |  |  |  | reduction in prostate weight (male SD rats [2]; 15 mg/kg QD PO x 14 days): 17%; reduction in seminal vesicle weight (male SD rats [2]; 15 mg/kg QD PO x 14 days): 27%
C[C@]12CC[C@H](O)CC1=CC[C@@H]1[C@@H]2CC[C@]2(C)C(c3cccnc3)=CC[C@@H]12 [Abiraterone, abiraterone, reference compound] |  |  |  | 8.55 | 8.52 | 8.30 | 8.30 | <0.2 | 9.17 | > 9.00 | 7.19 | 7.19 | 
